Key:
[1] = molecular target: His-AKT (Full Length) (Homo sapiens (Human), UniProt P31749); assay: AKT enzyme assay; format: biochemical; conditions: read-out: IC50 AKT
[2] = molecular target: P70S6K (T412E mutant) (Homo sapiens (Human), UniProt P23443, T412E); assay: P70S6K enzyme assay; format: biochemical; conditions: read-out: IC50 p70S6K
Method in brief: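 Read-out is the substrate/phosphopeptide ratio from mobility-shift electrophoresis on a LabChip 3000.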

His-AKT (Full Length), sequence (P31749 whole entry): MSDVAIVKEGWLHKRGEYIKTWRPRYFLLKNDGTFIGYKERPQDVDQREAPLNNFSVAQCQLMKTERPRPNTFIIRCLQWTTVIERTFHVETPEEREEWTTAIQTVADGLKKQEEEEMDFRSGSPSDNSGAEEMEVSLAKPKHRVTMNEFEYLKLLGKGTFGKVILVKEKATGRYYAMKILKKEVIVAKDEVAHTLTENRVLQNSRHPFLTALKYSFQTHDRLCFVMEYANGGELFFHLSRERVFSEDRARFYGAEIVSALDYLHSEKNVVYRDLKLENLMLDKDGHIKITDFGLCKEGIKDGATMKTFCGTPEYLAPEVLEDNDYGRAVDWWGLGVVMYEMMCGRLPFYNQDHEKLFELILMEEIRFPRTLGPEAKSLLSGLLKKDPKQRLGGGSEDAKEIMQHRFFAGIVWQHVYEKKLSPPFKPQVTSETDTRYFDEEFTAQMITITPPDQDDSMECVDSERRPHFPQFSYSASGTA
P70S6K (T412E mutant), sequence (P23443 whole entry T412E): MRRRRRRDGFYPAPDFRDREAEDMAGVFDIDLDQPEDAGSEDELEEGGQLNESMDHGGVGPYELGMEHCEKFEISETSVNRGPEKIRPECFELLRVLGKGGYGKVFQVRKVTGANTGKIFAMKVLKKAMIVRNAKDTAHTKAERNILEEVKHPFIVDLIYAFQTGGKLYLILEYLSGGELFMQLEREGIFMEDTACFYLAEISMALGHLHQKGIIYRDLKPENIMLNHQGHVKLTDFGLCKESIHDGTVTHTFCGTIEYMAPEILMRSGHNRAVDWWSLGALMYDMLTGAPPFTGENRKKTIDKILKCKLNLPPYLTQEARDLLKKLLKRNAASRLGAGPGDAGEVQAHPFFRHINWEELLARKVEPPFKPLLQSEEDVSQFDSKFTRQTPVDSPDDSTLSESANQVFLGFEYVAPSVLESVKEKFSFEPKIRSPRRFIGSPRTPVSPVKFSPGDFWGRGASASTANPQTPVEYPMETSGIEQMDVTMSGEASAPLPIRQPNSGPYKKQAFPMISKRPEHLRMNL

Row | IC50 [1] [nM] | IC50 [2] [nM] | SMILES
1 | 7.3 | 6 | Nc1ncnc(N2CCC(c3nc(-c4ccc(C(F)(F)F)c(F)c4)cn3CCN3CCC3)CC2)c1C1CCC1 [Compound 280]
2 | 9.2 | 3.9 | CCc1c(N)ncnc1N1CCC(c2nc(-c3ccc(F)c(Cl)c3)cn2CCN2CCC2)CC1 [Compound 281]
3 | 24 | 3.8 | CCc1c(N)ncnc1N1CCC(c2nc(-c3ccc(F)c(F)c3)cn2CCN2CCC2)CC1 [Compound 282]
4 | 2.7 | 1.4 | Nc1ncnc(N2CCC(c3nc(-c4ccc(F)c(C(F)(F)F)c4)cn3CCN3CCC3)CC2)c1[N+](=O)[O-] [Compound 283]
5 | 51.5 | 10.6 | Nc1ncnc(N2CCC(c3nc(-c4ccc(F)c(C(F)(F)F)c4)cn3CCN3CCC3)CC2)c1N [Compound 284]
6 | 1.4 | 1 | Nc1ncnc(N2CCC(c3nc(-c4ccc(F)c(C(F)(F)F)c4)cn3CCN3CCC3)CC2)c1C=O [Compound 285]
7 | 730 | 135 | Nc1ncnc(N2CCC(c3nc(-c4ccc(F)c(C(F)(F)F)c4)cn3CCN3CCCC3)CC2)c1C(=O)O [Compound 286]
8 | 1 | 0.6 | Nc1ncnc(N2CCC(c3nc(-c4ccc(F)c(C(F)(F)F)c4)cn3CCN3CCCC3)CC2)c1C=O [Compound 287]
9 | 190 | 21 | CC(=O)Nc1c(N)ncnc1N1CCC(c2nc(-c3ccc(F)c(C(F)(F)F)c3)cn2CCN2CCC2)CC1 [Compound 288]
10 | 2 | 1.3 | CC(C)Oc1c(N)ncnc1N1CCC(c2nc(-c3ccc(F)c(Cl)c3)cn2CCN2CCCC2)CC1 [Compound 290]
11 | 8 | 2.6 | CCOc1c(N)ncnc1N1CCC(c2nc(-c3ccc(F)c(C(F)(F)F)c3)cn2CCN(C)C)CC1 [Compound 291]
12 | 7.6 | 3.4 | CC(C)Oc1c(N)ncnc1N1CCC(c2nc(-c3ccc(F)c(C(F)(F)F)c3)cn2CCN(C)C)CC1 [Compound 292]
13 | 1.7 | 1 | CCOc1c(N)ncnc1N1CCC(c2nc(-c3ccc(F)c(C)c3)cn2CCN(C)C)CC1 [Compound 293]
14 | 1.9 | 1.3 | Cc1cc(-c2cn(CCN(C)C)c(C3CCN(c4ncnc(N)c4OC(C)C)CC3)n2)ccc1F [Compound 294]
15 | 23 | 4.1 | CCc1c(N)ncnc1N1CCC(c2nc(-c3ccc(F)c(C)c3)cn2CCN(C)C)CC1 [Compound 295]
16 | 2.6 | 1.6 | CCc1c(N)ncnc1N1CCC(c2nc(-c3ccc(F)c(C)c3)cn2CCN(CC)CC)CC1 [Compound 296]
17 | 6.6 | 3.9 | CCc1c(N)ncnc1N1CCC(c2nc(-c3ccc(F)c(C)c3)cn2CCN2CCCC2)CC1 [Compound 297]
18 | 6.6 | 6.8 | CCOc1c(N)ncnc1N1CCC(c2nc(-c3ccc(F)c(C)c3)cn2CCN2CCCC2)CC1 [Compound 298]
19 | 8.9 | 10 | Cc1cc(-c2cn(CCN3CCCC3)c(C3CCN(c4ncnc(N)c4OC(C)C)CC3)n2)ccc1F [Compound 299]
20 | 8.9 | 3.1 | CCc1c(N)ncnc1N1CCC(c2nc(-c3ccc(F)c(C)c3)cn2CCN(CC)C(C)C)CC1 [Compound 300]
21 | 6.3 | 12 | CCN(CCn1cc(-c2ccc(F)c(C)c2)nc1C1CCN(c2ncnc(N)c2OC(C)C)CC1)C(C)C [Compound 302]
22 | 0.8 | 2.4 | CCOc1c(N)ncnc1N1CCC(c2nc(-c3ccc(F)c(C)c3)cn2CCN(CC)CC)CC1 [Compound 303]
23 | 2.6 | 4.6 | CCN(CC)CCn1cc(-c2ccc(F)c(C)c2)nc1C1CCN(c2ncnc(N)c2OC(C)C)CC1 [Compound 304]
24 | 3.2 | 1.9 | N#Cc1c(N)ncnc1N1CCC(c2nc(-c3ccc(F)c(C(F)(F)F)c3)cn2CCN2CCCC2)CC1 [Compound 305]
